# Measurements from paper PMC4468182, “Murine Efficacy and Pharmacokinetic Evaluation of the Flaviviral NS5 Capping Enzyme 2-Thioxothiazolidin-4-One Inhibitor BG-323” (PLoS ONE, 2015).
# Values joined by “and” are separate entries in the source; they are usually repeats but may differ in a detail not shown here. Identical values can stand only once.
# Experiments:
# WNV NY99 = assay: In vivo antiviral efficacy in WNV NY99-challenged mice; set-up: species or system ICR mice; key to Clinical score, day 1 post-challenge / Clinical score, day 2 post-challenge / Clinical score, day 3 post-challenge / Clinical score, day 4 post-challenge / Clinical score, day 5 post-challenge / Clinical score, day 6 post-challenge / Clinical score, day 7 post-challenge / Clinical score, day 8 post-challenge / Clinical score, day 9 post-challenge / Clinical score, day 10 post-challenge / Clinical score, day 11 post-challenge / Clinical score, day 12 post-challenge / Clinical score, day 13 post-challenge / Clinical score, day 14 post-challenge: 0 is normal; 1 is questionable illness; 2 is distinct mild illness; 3 is distinct disease; 4 is serious disease/moribund
# [1] = system: Powassan virus (LB strain); format: cell-based
# Caco-2 cells = assay: Caco-2 cell permeability assay; conditions: 5 μM, Caco-2, pH 7.4, 120 min
# Yellow fever viruses = conditions: cited from earlier work
# CYP P450 isoform 3A4 = CYP P450 isoform 3A4 (Homo sapiens, UniProt P08684); assay: CYP P450 binding assay, isoform 3A4; conditions: 10 μM, human liver microsomes, midazolam substrate, vs ketoconazole positive control
# [2] = In vivo toxicity assay (mouse weight); set-up: species or system ICR mice; conditions: 50 mg/kg IP
# Procedure: Two groups of 3 mice each were either injected with 150 μL of 50 mg/kg BG-323 (synthesized by Brian McNaughton’s group at CSU [15]) formulated in 10% DMSO, 15% solutol and 75% saline or DMSO vehicle in the same formulation. Mice were weighed daily for 7 days and percent of maximum weight loss was calculated.
# [3] = Metabolic stability assay in liver microsomes; conditions: 1 μM, human liver microsomes 0.5 mg/mL, NADPH
# [4] = In vivo half-life (T1/2), serum LC/MS/MS
# CYP P450 isoform 2C9 = CYP P450 isoform 2C9 (Homo sapiens, UniProt P11712); assay: CYP P450 binding assay, isoform 2C9; conditions: 10 μM, human liver microsomes, diclofenac substrate, vs sulfaphenazole positive control
# [5] = system: West Nile virus (subtype Kunjin); set-up: method as in PMID 22674988; conditions: 75 μM, cell culture, previously tested; cited from earlier work
# [6] = system: West Nile virus (NY99 strain); assay: In vitro West Nile virus efficacy assay (plaque assay); format: cell-based
# WNV (Kunjin subtype) = assay: BG-323 resistance study, six rounds of infection; format: cell-based, West Nile virus; conditions: 75 μM BG-323, BHK21 cells, 100 PFU Kunjin per round, six 3-day rounds
# Procedure: On day one, BHK-21 cells (ATCC) were seeded in 12-well plates at 50,000 cells/mL and allowed to attach overnight. The following day, each of 9 wells was infected with 100 PFU WNV (Kunjin subtype) in complete DMEM (cDMEM) and 3 uninfected control wells received cDMEM only. Cells were incubated with media for 2 hr at 37°C to allow cells to become infected. After 2 hr, infected cDMEM was replaced with new media containing DMSO or 75 μM BG-323. Each condition was run in triplicate. Following DMSO or drug administration, cells were incubated at 37°C. On day 3, samples were collected and stored at -80°C. Viral titers were calculated by plaque assay as previously described on one tube of the day 3 samples for each replicate. 100 PFU from an unthawed day 3 sample was used to infect fresh BHK 21 cells to start the next round of infection. The three-day cycle was considered one round of infection and the study continued for 6 rounds. The infectious input of Kunjin virus and the concentrations (75 μM) of BG-323 were held constant throughout the study.
# [7] = Plasma protein binding assay (Rapid Equilibrium Dialysis); format: in vitro ADME; conditions: human plasma, 5 μM, pH 7.4, 37°C, 4 hr
# [8] = mice, 0.38 mL bolus of 5 mg/mL, serum
# CYP P450 isoform 2C9, sequence (P11712 whole entry, canonical isoform): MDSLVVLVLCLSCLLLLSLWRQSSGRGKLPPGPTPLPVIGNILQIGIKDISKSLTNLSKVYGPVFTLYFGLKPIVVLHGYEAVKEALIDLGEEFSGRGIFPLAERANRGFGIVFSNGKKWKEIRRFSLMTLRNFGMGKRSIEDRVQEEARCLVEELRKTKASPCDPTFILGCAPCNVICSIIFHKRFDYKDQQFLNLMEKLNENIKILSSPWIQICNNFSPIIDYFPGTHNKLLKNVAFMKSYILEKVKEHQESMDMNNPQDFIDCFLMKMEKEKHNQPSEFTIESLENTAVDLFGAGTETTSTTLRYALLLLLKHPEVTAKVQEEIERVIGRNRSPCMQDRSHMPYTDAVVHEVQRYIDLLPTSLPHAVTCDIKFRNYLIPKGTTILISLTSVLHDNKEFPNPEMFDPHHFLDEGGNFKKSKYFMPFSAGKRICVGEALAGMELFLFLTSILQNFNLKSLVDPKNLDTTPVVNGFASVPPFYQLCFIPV
# CYP P450 isoform 3A4, sequence (P08684 whole entry, canonical isoform): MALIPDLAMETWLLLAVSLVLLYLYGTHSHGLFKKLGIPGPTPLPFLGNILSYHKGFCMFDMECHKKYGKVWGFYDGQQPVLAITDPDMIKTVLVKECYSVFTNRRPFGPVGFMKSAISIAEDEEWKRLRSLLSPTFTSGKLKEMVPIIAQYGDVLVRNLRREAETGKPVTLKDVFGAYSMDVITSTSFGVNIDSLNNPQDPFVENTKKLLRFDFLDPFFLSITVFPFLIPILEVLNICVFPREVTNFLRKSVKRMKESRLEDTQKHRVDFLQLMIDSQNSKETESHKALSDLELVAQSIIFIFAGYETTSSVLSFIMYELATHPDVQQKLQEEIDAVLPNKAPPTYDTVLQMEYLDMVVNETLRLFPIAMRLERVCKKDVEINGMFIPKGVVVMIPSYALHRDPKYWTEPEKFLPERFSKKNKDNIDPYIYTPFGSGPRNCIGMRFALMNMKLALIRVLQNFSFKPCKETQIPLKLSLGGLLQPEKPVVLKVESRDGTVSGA
structure (smiles),measurement,setting,value
"CC(C)(C)c1ccc(/C=C2/SC(=S)N(CCC(=O)O)C2=O)cc1 [BG-323, (E)-{3-[5-94-tert-butylbenzylidene0-4-oxo-2-thioxo-1,3-thiazolidin-3-yl]propanoic acid}]",average viral titers in sera on day three,"WNV NY99; 500 PFU WNV NY99 footpad, 50 mg/kg IP BID 5 days, day 3 post challenge",1.6x10^5 PFU/mL
same,"Clinical score, day 1 post-challenge","WNV NY99; individual WNV NY99-challenged mice, 50 mg/kg IP BID 5 days, day 1",0
same,"Clinical score, day 2 post-challenge","WNV NY99; individual WNV NY99-challenged mice, 50 mg/kg IP BID 5 days, day 2",0
same,"Clinical score, day 3 post-challenge","WNV NY99; individual WNV NY99-challenged mice, 50 mg/kg IP BID 5 days, day 3",0
same,"Clinical score, day 4 post-challenge","WNV NY99; individual WNV NY99-challenged mice, 50 mg/kg IP BID 5 days, day 4",0
same,"Clinical score, day 5 post-challenge","WNV NY99; individual WNV NY99-challenged mice, 50 mg/kg IP BID 5 days, day 5",0
same,"Clinical score, day 6 post-challenge","WNV NY99; individual WNV NY99-challenged mice, 50 mg/kg IP BID 5 days, day 6",1
same,"Clinical score, day 7 post-challenge","WNV NY99; individual WNV NY99-challenged mice, 50 mg/kg IP BID 5 days, day 7",1 and 4
same,"Clinical score, day 8 post-challenge","WNV NY99; individual WNV NY99-challenged mice, 50 mg/kg IP BID 5 days, day 8",1 and 4
same,"Clinical score, day 9 post-challenge","WNV NY99; individual WNV NY99-challenged mice, 50 mg/kg IP BID 5 days, day 9",4 and 2 and 1
same,"Clinical score, day 10 post-challenge","WNV NY99; individual WNV NY99-challenged mice, 50 mg/kg IP BID 5 days, day 10",4 and 1
same,"Clinical score, day 11 post-challenge","WNV NY99; individual WNV NY99-challenged mice, 50 mg/kg IP BID 5 days, day 11",1
same,"Clinical score, day 12 post-challenge","WNV NY99; individual WNV NY99-challenged mice, 50 mg/kg IP BID 5 days, day 12",0
same,"Clinical score, day 13 post-challenge","WNV NY99; individual WNV NY99-challenged mice, 50 mg/kg IP BID 5 days, day 13",0
same,"Clinical score, day 14 post-challenge","WNV NY99; individual WNV NY99-challenged mice, 50 mg/kg IP BID 5 days, day 14",0
same,survival probability (Kaplan-Meier) versus control,"WNV NY99; mouse, in vivo",approximately the same between the two groups
same,reduction in viral titers compared to DMSO controls (Powassan),[1],~5 fold
same,reduction of Powassan virus titers,[1],approximately 5 logs
same,"Average Papp, A to B",Caco-2 cells; A to B,49.4±1 x 10^−6 cm/s
same,"Percent Recovery, A to B",Caco-2 cells; A to B,43%
same,"Average Papp, B to A",Caco-2 cells; B to A,49.6±9.5 x 10^−6 cm/s
same,"Percent Recovery, B to A",Caco-2 cells; B to A,57%
same,"log reduction of titers, Yellow fever virus",Yellow fever viruses,~1 log
same,percent inhibition of CYP 3A4,CYP P450 isoform 3A4,insignificant compared to positive controls
same,gross toxicity in mice,[2]; 7 days,does not appear to be grossly toxic
same,average weight loss percentage (maximum weight loss),"[2]; mice, weights monitored 7 days",3.5%
same,T1/2 in human liver microsomes,[3],> 1 h
same,in vitro intrinsic clearance (CLint),[3],< 0.023 mL/min/mg protein
same,percent of initial concentration remaining at 60 minutes,[3]; 60 min,85%
same,T1/2 in mice,"[4]; 0.38 mL bolus of 5 mg/mL, serum",1.75 h
same,Initial concentration (C0),[4]; [8],19275 ng/mL
same,elimination rate constant (Kel),[4]; [8],0.395 h⁻¹
same,average serum concentration five min after administration,"[4]; mice, 0.38 mL of 5 mg/mL, 5 min","~21,000 ng/mL"
same,percent inhibition of CYP 2C9,CYP P450 isoform 2C9,insignificant compared to positive controls
same,"log reduction of titers, West Nile virus (subtype Kunjin)",[5],approximately 2 log
same,reduction of West Nile virus titers,[6],approximately 5 logs
same,reduction in viral titers compared to DMSO controls (WNV),"[6]; 75 μM, BHK21 cells, 72 hours, Fig 1 legend",~5 fold
same,emergence of resistance (viral titers over time),WNV (Kunjin subtype),no significant increase in viral titers over time
same,percent bound to plasma proteins,[7],99.9%
